{"source": "patent US8993585B2", "about": "“Cyclic amine substituted pyrimidinediamines as PKC inhibitors” (Rigel Pharmaceuticals, Inc., priority 2007, dated 2015)", "key": {"PKC theta": {"biological_target": "T1, PKC theta (Homo sapiens, UniProt Q04759)", "T1 construct": "purchased Upstate Biotechnologies, Temecula, CA 14-444", "T1 sequence (Q04759 whole entry)": "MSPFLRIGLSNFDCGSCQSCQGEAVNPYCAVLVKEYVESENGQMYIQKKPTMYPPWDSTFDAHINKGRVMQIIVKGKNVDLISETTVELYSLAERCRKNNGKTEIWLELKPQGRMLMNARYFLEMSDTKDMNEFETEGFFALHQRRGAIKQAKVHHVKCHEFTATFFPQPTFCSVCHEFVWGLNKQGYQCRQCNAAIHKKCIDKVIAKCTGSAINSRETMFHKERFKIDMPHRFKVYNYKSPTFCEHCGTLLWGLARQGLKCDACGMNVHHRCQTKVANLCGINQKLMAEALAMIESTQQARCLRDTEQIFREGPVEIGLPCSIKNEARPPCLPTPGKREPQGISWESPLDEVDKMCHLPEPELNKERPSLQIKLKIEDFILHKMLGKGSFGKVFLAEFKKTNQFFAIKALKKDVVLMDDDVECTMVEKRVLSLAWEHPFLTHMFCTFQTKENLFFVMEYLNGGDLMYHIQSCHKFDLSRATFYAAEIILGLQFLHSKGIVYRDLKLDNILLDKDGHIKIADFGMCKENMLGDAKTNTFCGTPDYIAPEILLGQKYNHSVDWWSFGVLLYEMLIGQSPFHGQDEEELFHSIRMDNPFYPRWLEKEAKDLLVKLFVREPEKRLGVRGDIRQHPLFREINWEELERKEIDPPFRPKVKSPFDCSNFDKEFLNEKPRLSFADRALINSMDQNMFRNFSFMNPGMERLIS", "test": "PKC assay, fluorescence polarization (Example 2), PKC theta", "format": "biochemical", "conditions": "5 μM ATP", "in_short": "(§1)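 Phosphorylated peptide product detected by fluorescence polarization, with EDTA quench plus peptide tracer and antibody. Reaction in 20 mM HEPES pH 7.4, 5 mM MgCl2, 0.2 mM CaCl2, 1 mM DTT, 0.02% Brij-35, phosphatidylserine and dioleoyl-sn-glycerol, with 5 μM ATP and 5 μM peptide. Started with enzyme, 20 min at room temperature.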"}, "PKC epsilon": {"biological_target": "T2, PKC epsilon (Homo sapiens, UniProt Q02156)", "T2 construct": "purchased Upstate Biotechnologies, Temecula, CA 14-518", "T2 sequence (Q02156 1-737)": "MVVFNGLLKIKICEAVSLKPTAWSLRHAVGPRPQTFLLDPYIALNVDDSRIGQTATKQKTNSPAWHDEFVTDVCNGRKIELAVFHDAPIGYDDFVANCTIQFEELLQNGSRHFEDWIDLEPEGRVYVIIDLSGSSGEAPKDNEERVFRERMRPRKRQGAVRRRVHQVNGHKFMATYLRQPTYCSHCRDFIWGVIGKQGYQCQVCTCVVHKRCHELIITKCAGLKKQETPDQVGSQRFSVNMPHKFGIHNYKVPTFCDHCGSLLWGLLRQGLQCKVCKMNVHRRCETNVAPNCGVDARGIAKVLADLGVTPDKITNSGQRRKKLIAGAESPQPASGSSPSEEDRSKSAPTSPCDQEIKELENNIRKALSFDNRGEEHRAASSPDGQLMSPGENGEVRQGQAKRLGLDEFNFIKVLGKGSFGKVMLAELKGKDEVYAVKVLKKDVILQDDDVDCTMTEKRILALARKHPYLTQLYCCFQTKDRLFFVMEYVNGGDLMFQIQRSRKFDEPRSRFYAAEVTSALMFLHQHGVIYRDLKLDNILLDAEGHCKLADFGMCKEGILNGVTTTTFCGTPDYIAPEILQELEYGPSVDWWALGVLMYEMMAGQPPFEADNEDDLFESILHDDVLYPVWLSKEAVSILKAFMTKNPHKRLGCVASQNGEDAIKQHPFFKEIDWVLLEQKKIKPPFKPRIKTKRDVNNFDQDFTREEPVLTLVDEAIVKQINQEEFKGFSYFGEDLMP", "test": "PKC assay, fluorescence polarization (Example 2), PKC epsilon", "format": "biochemical", "conditions": "5 μM ATP", "in_short": "as §1"}, "Human primary T cells": {"test_system": "Human primary T cells", "test": "IL-2 ELISA, Human Primary T Cell, Anti-CD3+CD28+ (Example 3)", "format": "cell-based", "conditions": "Homo sapiens, T-cell, 24 h, anti-CD3+CD28 stimulation", "in_short": "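IL-2 was read by ELISA after stimulation on wells pre-coated with 1 ug/ml αCD3 and 5 μg/ml αCD28. Before this, 100,000 human primary T cells per well spent 1 h at 37 °C with test compound in Yssel's medium. The counter-screen replaced antibody stimulation with PMA (0.5 ng/ml final) and ionomycin (0.1 uM final).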"}, "PKC mu": {"biological_target": "T3, PKC mu (Homo sapiens, UniProt Q15139)", "T3 sequence (Q15139 1-912)": "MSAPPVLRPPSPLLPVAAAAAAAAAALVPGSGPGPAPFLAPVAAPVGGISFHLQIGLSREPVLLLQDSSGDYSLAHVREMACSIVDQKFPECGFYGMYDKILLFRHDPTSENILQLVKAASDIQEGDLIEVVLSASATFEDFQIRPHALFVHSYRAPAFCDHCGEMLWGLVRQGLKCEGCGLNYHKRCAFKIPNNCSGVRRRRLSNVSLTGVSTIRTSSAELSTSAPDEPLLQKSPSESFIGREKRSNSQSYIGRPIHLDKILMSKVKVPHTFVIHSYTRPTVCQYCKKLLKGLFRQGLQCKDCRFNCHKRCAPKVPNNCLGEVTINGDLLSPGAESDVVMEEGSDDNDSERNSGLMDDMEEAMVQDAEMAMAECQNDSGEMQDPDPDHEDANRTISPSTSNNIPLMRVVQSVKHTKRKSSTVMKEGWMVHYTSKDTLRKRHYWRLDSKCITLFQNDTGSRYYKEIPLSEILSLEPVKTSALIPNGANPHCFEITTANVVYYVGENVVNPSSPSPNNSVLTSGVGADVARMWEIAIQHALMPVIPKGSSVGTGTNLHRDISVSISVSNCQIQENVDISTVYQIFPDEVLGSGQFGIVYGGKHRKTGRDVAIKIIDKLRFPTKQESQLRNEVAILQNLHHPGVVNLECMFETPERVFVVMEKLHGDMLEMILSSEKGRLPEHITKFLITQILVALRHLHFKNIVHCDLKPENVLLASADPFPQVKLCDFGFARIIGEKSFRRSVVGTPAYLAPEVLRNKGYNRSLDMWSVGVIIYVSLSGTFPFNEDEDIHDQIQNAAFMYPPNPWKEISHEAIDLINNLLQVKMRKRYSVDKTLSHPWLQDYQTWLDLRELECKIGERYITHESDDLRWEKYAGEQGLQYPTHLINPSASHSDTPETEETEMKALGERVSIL", "test": "PKC assay, fluorescence polarization (Example 2), PKC mu", "format": "biochemical", "conditions": "5 μM ATP", "method": "The inhibition of PKC activity was measured by monitoring the production of phosphorylated peptide by fluorescence polarization at different concentrations of the inhibitor. Reactions were carried out in 96-well plate format with a total volume of 20 μL containing 20 mM HEPES, pH 7.4, 5 mM MgCl2, 0.2 mM CaCl2, 1 mM DTT, 0.02% Brij-35, 0.1 mg/mL phosphatidylserine, 0.02 mg/mL dioleoyl-sn-glycerol and 5 μM each of ATP and the peptide substrate. Compounds were first diluted serially in DMSO and then transferred to a solution containing the above concentrations of HEPES, MgCl2, CaCl2, DTT, and Brij-35 to yield 5× compound solutions in 2% DMSO, which was then added to the reaction solution. Reactions were initiated by the addition of PKC at a typical concentration as described in Table VI, and then allowed to incubate at room temperature for 20 min. At the end of this time, a combination of quench (EDTA) and detection (peptide tracer and antibody) reagents was added using the protocol of Invitrogen P2748. After a 30 min. period of incubation, the amount of phosphorylated peptide generated was measured by fluorescence polarization (Ex=485 nm, Em=535 nm) using a Tecan Polarian instrument."}}, "note": "pIC50: −log10 of the molar value.", "data": [{"compound": "CN1CCN(c2ccc(Nc3ncc(C(F)(F)F)c(NC4CC(C)(C)N(C)C(C)(C)C4)n3)cc2C(F)(F)F)CC1", "note": "[Compound I-38]", "values": [{"measurement": "pIC50", "setting": "PKC theta", "result": 7.80}, {"measurement": "pIC50", "setting": "PKC epsilon", "result": 6.30}, {"measurement": "pIC50", "setting": "Human primary T cells", "result": 6.71}, {"measurement": "pIC50", "setting": "PKC mu", "result": 7.48}]}]}
